Source: patent US20230364130A1, “INHALED ARGON FOR TREATING A PATIENT SUFFERING FROM CARDIOVASCULAR DISEASE” (L'Air Liquide, Sociëtë Anonyme Pour l'Etude et …, priority 2020, published 2023)

Experiments:
rabbits [1] = experiment: model of multiple organ failure by clamping the supraceliac aorta (30 min) then reperfusion; hemodynamics and acid-base parameters; assay type: in vivo, rabbit (male, New Zealand breed)
Experimental: (§1) More specifically, the model used is a lagomorphic model of multiple organ failure by clamping the supraceliac aorta.
The rabbits were sedated by intravenous injection (Zoletil® 15 mg/kg), then intubated to be ventilated. Anesthesia is completed by intravenous administration of thiopental (10 mg/kg) and methadone hydrochloride (Comfortan® 0.6 mg/kg); and maintained as needed with thiopental boluses.
(§2) After a period of hemodynamic stabilization, the supraceliac aorta is clamped with an atraumatic clamp for 30 minutes. In order to avoid any thrombus formation at the level of the clamping, a bolus of unfractionated heparin (250 IU/kg) is administered to the rabbit in question, 5 minutes before clamping.
The effectiveness of the clamping is verified by the absence of an aortic pulse downstream of the clamping. Similarly, the absence of thrombus is assessed by the presence of an aortic pulse after unclamping.
(§3) The rabbits are separated into 2 groups: • a Control Group (CG) inhaling an N2/O2 binary gas mixture containing 30% of oxygen and the rest as nitrogen (vol %); • an Argon Group (AG) according to the invention inhaling an Ar/O2 binary gas mixture containing 30% of oxygen and the rest as argon (vol %), i.e. 70 vol % of argon.
The cardiac output is measured by a cardiac output valve before, during and after ischemia (Isch.) of the aorta.

rabbits [2] = experiment: histology score of organs after supraceliac aortic clamping and reperfusion; assay type: in vivo, rabbit (male, New Zealand breed)
Experimental: as §1, §2, §3
FIG. 3 represents the histology score of several organs: heart, liver, lungs, kidneys and jejunum (i.e. intestines).

rabbits [3] = experiment: additional preliminary study: suprarenal then supraceliac aortic clamping, calculated pulmonary vascular resistance; assay type: in vivo, rabbit; conditions: argon 70 vol % / oxygen 30 vol %, during suprarenal then supraceliac aortic clamping
Experimental: A first clamping of the aorta of these rabbits was performed above the renal artery, followed by clamping at the supraceliac level. The objective is to see the effect of argon during a gradual modification of systemic resistance.

[4] = after 300 minutes of reperfusion

In the case of [Ar] [argon], the “pH, HCO3- and lactate parameters vs Control Group” value (rabbits [1]; acid-base biochemical parameters) is reported as “significantly preserved within normal values”, the “norepinephrine dose required to maintain a stable arterial pressure” value (rabbits [1]; after 15 minutes of reperfusion) is reported as 1.4 ± 0.6 µg/kg/min and the cardiac output (rabbits [1]; after 30 minutes of gas inhalation, before clamping) is reported as 5.94 ± 0.6 L/h/kg. The cardiac output (rabbits [1]; [4]) was 3.6 ± 0.24 L/h/kg, the pH (rabbits [1]; [4]) was 7.16 and the “cardiac output vs Control Group” value (rabbits [1]; after unclamping, up to 240 minutes of reperfusion) was “no significant difference between the groups”. The “norepinephrine dose required to maintain a stable arterial pressure” value (rabbits [1]; at the end of the 300-minute monitoring) was 3.3 ± 1.6 µg/kg/min, the cardiac output (rabbits [1]; at the start of the experiment, inhaled Ar/O2 70/30 vol %) was 6.48 ± 0.42 L/h/kg and the mean arterial pressure (rabbits [1]; during the ischemia phase following clamping) was 130±7 mmHg. The “mean arterial pressure vs Control Group” value (rabbits [1]; during the reperfusion phase, after unclamping) was “no significant difference between the groups”, the “attenuated decrease of cardiac output vs Control Group” value (rabbits [1]; immediately after beginning of surgery, upon clamping) was “approximately 20%” and the “norepinephrine doses to maintain mean arterial pressure vs Control Group” value (rabbits [1]; throughout reperfusion) was “significantly lower”. The “heart rate vs Control Group” value (rabbits [1]; throughout the protocol) was “no significant difference between the groups”, the “jejunal lesions vs Control Group” value (rabbits [2]; jejunum, histology) was “no difference” and the “tubular necrosis lesions vs Control Group” value (rabbits [2]; kidneys, histology) was “significantly greater in the Control Group than in the Argon Group”. For the same compound, the “histology score, centrilobular clarification vs Control Group” value (rabbits [2]; liver) was “significantly lower”, the “congestive and edematous lesions of the lung parenchyma vs Control Group” value (rabbits [2]; lungs, histology) was “the difference was not significant” and the “subendocardial necrosis lesions vs Control Group” value (rabbits [2]; myocardium, histology) was “no significant difference”. The “pulmonary vascular resistance vs animals exposed to oxygen-enriched air” value (rabbits [3]) was “immediately reduced”.
